Here are results for 37 compounds from ChEMBL document CHEMBL6177918, “Generation and capture of naphthoquinonynes: a new frontier in the development of trypanocidal quinones via aryne chemistry” (RSC Med Chem, 2025).

For the first data set, the system named is Trypanosoma cruzi. Nature of the data set: Trypanocidal activity against bloodstream Trypanosoma cruzi trypomastigotes incubated for 24 hrs by light microscopy. Type of data set: functional, organism-based.
Regarding `CC12C=CC(C)(O1)c1cc3c(cc12)C(=O)C=CC3=O`, the IC50 – broadly, the concentration that inhibits the measured activity by half – was determined as 40 µM.
On the same count and under the same terms, the same measure for `O=C1C=CC(=O)c2cc(N(c3ccccc3)c3ccccc3)ccc21`: 134 µM.
`Cc1ccc(-c2cc3c(cc2O)C(=O)C=CC3=O)cn1` yielded an IC50 of 24.2 µM.
On to `Cc1ccncc1-c1cc2c(cc1O)C(=O)C=CC2=O`, for which the IC50 is 181 µM.
`CC(C)=C1C2C=CC1c1cc3c(cc12)C(=O)C=CC3=O` showed an IC50 of over 800 µM.
In turn, `O=C1C=CC(=O)c2cc3c(cc21)C1C=CC3O1` gave an IC50 of 10.1 µM.
Compound `O=C1C=CC(=O)c2cc(-c3cccc(-c4ccccc4)n3)c(O)cc21` registered an IC50 of 30.1 µM.
As to `COc1ccc(OC)c2cc(O)ccc12`, the IC50 came to 379 µM.
As to `CCN(CC)c1ccc2c(c1)C(=O)C=CC2=O`, half-maximal inhibition (IC50) required 96.2 µM.
Turning to `O=C1C=CC(=O)c2cc(Nc3cccc4ccccc34)ccc21`, inhibition was half-maximal at 186 µM (IC50).
The same measure, in the same setting: the same measure for `CCN(CC)C(=O)Oc1ccc2c(OC)ccc(OC)c2c1`: over 800 µM; for `O=C1C=CC(=O)c2cc(N(Cc3ccccc3)Cc3ccccc3)ccc21`: over 400 µM.
Consider `CC(C)N(c1ccc2c(c1)C(=O)C=CC2=O)C(C)C`, for which the 50% inhibitory concentration (IC50) came to 18 µM.
The compound `C=CCN(CC=C)c1ccc2c(c1)C(=O)C=CC2=O` displayed an IC50 of 111 µM.
Same read-out and setting: then `CCC12C=CC(O1)c1cc3c(cc12)C(=O)C=CC3=O` (stereo not drawn), with 48.8 µM; and `O=C1C=CC(=O)c2cc(OCCCCOc3ccccc3)ccc21`, with 362 µM.
On to `COc1ccc(OC)c2ccccc12`, for which the IC50 was over 500 µM.
Consider `Cc1ccc(Nc2ccc3c(c2)C(=O)C=CC3=O)cc1`, for which 138 µM corresponded to half-maximal inhibition (IC50).
Same read-out and setting: then `O=C1C=CC(=O)c2cc(-c3cnc4ccccc4c3)c(O)cc21`, with 46.6 µM; and `O=C1C=CC(=O)c2cc(-n3cccn3)ccc21`, with 74.4 µM.
Still for that read-out and setting: the same measure for `O=C1C=CC(=O)c2cc(Nc3ccccc3)ccc21`: 39.2 µM; for `O=C1C=CC(=O)c2cc(N(C3CCCCC3)C3CCCCC3)ccc21`: 54.2 µM.
Take `CC(=O)C12C=CC(O1)c1cc3c(cc12)C(=O)C=CC3=O` (stereo not drawn): the 50% inhibitory concentration (IC50) stood at 64.4 µM.
The compound `COc1ccc(OC)c2cc([Si](C)(C)C)c(O)cc12` showed an IC50 of 69.3 µM.
Turning to `COCC12C=CC(O1)c1cc3c(cc12)C(=O)C=CC3=O` (stereo not drawn), the IC50 was 58.1 µM.
Compound `O=C1C=CC(=O)c2cc(-c3ccc(-c4ccccc4)nc3)c(O)cc21` registered an IC50 of 10.5 µM.
Compound `CN(c1ccccc1)c1ccc2c(c1)C(=O)C=CC2=O` showed an IC50 of 29.5 µM.
Turning to `CC(=O)OCC12C=CC(O1)c1cc3c(cc12)C(=O)C=CC3=O` (stereo not drawn), the midpoint of inhibition, the IC50, lay at 27.3 µM.
The same measure, in the same setting: then `N#Cc1ccc(Nc2ccc3c(c2)C(=O)C=CC3=O)cc1`, with 94.8 µM.
On the same count and under the same terms, the same measure for `O=C(Cn1ccnc1[N+](=O)[O-])NCc1ccccc1` [BENZNIDAZOLE]: 108 µM.

A further data set has as its system Trypanosoma cruzi. Nature of the data set: Trypanocidal activity against Trypanosoma cruzi trypomastigotes incubated for 24 hrs. Type of data set: functional, organism-based.
Compound `CCOC(=O)/C=C/c1cccc2c1C(=O)C=CC2=O` returned an IC50 of 90.5 µM.
On to `O=C1C=CC(=O)c2c([Se]c3ccccc3)cccc21`, for which the IC50 amounted to 14.4 µM.
With `O=C1C=CC(=O)c2c1cccc2-n1cc(-c2ccccc2)nn1`, the IC50 stood at 86.7 µM.
In turn, `O=C(Cn1ccnc1[N+](=O)[O-])NCc1ccccc1` [BENZNIDAZOLE] registered an IC50 of 6.8 µM.
Still for that read-out and setting: the same measure for `O=C1C=CC(=O)c2c(O)cccc21` [JUGLONE]: 105 µM.

Tested on in another data set: not listed separately
Nature of the data set: Solubility of compound. Type of data set: physicochemical.
As to `O=C1C=CC(=O)c2cc(-c3cccnc3)c(O)cc21`, the solubility result is on record as “Insoluble”.
On the same count and under the same terms, then `COc1ccc(OC)c2cc([Si](C)(C)C)c(OS(=O)(=O)C(F)(F)C(F)(F)C(F)(F)C(F)(F)F)cc12`, with “Insoluble”.

Tested on in the next data set: not listed separately
Nature of the data set: Stability of compound. The class given is physicochemical.
Take `C[Si](C)(C)c1cc2c(cc1OS(=O)(=O)C(F)(F)C(F)(F)C(F)(F)C(F)(F)F)C(=O)C=CC2=O`: the Stability entry is listed as “Unstable”.
